Data from publication PMC3584441 (The Journal of membrane biology, 2013).
Where no end group is shown, it is not given here.

System: sheep erythrocytes
Assay: Hemolysis assay: decrease in absorbance
Assay type: cell-based
Settings: grouped as hemolytic (yes) or non-hemolytic (no)

| Molecule | Hemolytic |
| --- | --- |
| CC[C@H](C)[C@H](NC(=O)[C@H](Cc1c[nH]c2ccccc12)NC(=O)[C@H](CCCCN)NC(=O)[C@@H](NC(=O)[C@H](CC(C)C)NC(=O)[C@H](CCCCN)NC(=O)CNC(=O)[C@@H](NC(=O)[C@@H](NC(=O)[C@H](CO)NC(=O)[C@@H](NC(=O)[C@@H](NC(=O)[C@H](CCCCN)NC(=O)[C@H](CCC(N)=O)NC(=O)[C@H](C)NC(=O)[C@H](CCSC)NC=O)[C@@H](C)CC)[C@@H](C)CC)[C@@H](C)O)[C@@H](C)CC)C(C)C)C(=O)N[C@H](C(=O)N[C@@H](CCCCN)C(=O)N[C@H](C(=O)N[C@H](C(=O)N[C@@H](CC(N)=O)C(=O)N[C@@H](CCCCN)C(=O)N[C@@H](Cc1ccccc1)C(=O)N[C@H](C(=O)N[C@@H](CCCCN)C(=O)N[C@@H](CCCCN)C(=O)O)[C@@H](C)O)C(C)C)[C@@H](C)O)[C@@H](C)CC (racemic) [DL-1] | yes |
| CC(C)C[C@H](NC=O)C(=O)N[C@@H](C)C(=O)N[C@@H](C)C(=O)N[C@@H](CC(=O)O)C(=O)N[C@@H](CC(C)C)C(=O)N[C@@H](CC(C)C)C(=O)N[C@@H](C)C(=O)N[C@@H](C)C(=O)N[C@@H](CC(C)C)C(=O)NCC(=O)N[C@@H](CC(=O)O)C(=O)N[C@@H](CC(C)C)C(=O)N[C@@H](C)C(=O)N[C@@H](CCCCN)C(=O)N[C@@H](Cc1c[nH]c2ccccc12)C(=O)N[C@@H](CC(C)C)C(=O)N[C@@H](CC(C)C)C(=O)N[C@@H](CC(=O)O)C(=O)N[C@@H](C)C(=O)N[C@@H](CC(C)C)C(=O)N[C@@H](C)C(=O)N[C@@H](CCCCN)C(=O)N[C@@H](C)C(=O)N[C@@H](C)C(=O)N[C@@H](CCCCN)C(=O)N[C@@H](CCCCN)C(=O)O (racemic) [DL-2a] | yes |
| CC[C@H](C)[C@H](NC(=O)[C@H](CCCCN)NC(=O)[C@H](CCCCN)NC(=O)[C@H](C)NC(=O)[C@H](CC(C)C)NC(=O)[C@H](C)NC(=O)[C@H](C)NC(=O)[C@H](CC(C)C)NC(=O)[C@H](C)NC(=O)[C@H](CCCCN)NC(=O)[C@H](CC(C)C)NC(=O)[C@H](CC(N)=O)NC(=O)[C@@H](NC(=O)[C@H](CCCCN)NC(=O)CNC(=O)[C@H](CC(C)C)NC(=O)[C@H](CC(C)C)NC(=O)[C@H](Cc1c[nH]c2ccccc12)NC(=O)CNC(=O)[C@H](C)N)[C@@H](C)CC)C(=O)N[C@@H](CC(C)C)C(N)=O [TP10W] | yes |
| CC[C@H](C)[C@H](NC(=O)[C@H](Cc1c[nH]c2ccccc12)NC(=O)[C@H](CCCCN)NC(=O)[C@@H](NC(=O)[C@H](CC(C)C)NC(=O)[C@H](CC(=O)O)NC(=O)CNC(=O)[C@@H](NC(=O)[C@@H](NC(=O)[C@H](CO)NC(=O)[C@@H](NC(=O)[C@@H](NC(=O)[C@H](CC(=O)O)NC(=O)[C@H](CCC(N)=O)NC(=O)[C@H](C)NC(=O)[C@H](CCSC)NC=O)[C@@H](C)CC)[C@@H](C)CC)[C@@H](C)O)[C@@H](C)CC)C(C)C)C(=O)N[C@H](C(=O)N[C@@H](CC(=O)O)C(=O)N[C@H](C(=O)N[C@H](C(=O)N[C@@H](CC(N)=O)C(=O)N[C@@H](CCCCN)C(=O)N[C@@H](Cc1ccccc1)C(=O)N[C@H](C(=O)N[C@@H](CCCCN)C(=O)N[C@@H](CCCCN)C(=O)O)[C@@H](C)O)C(C)C)[C@@H](C)O)[C@@H](C)CC [δ-Lysin, reference compound] | yes |
| AGWLLGDINLDALAALAKKIL-NH2 [TPW-1] | yes |
| AGWLLGDINLKALAALAKKIL-NH2 [TPW-3] | yes |
| AGWLLGKLALKALAALAKKLL-NH2 [TPW-2] | yes |
| GILKFLESAKKWLEAFLAEIMNS [MG-1] | yes |
| GLGKLLHAAKKLGKAWLGELLAA [MG-2] | yes |
| KWKLLKKLEKAGAALKEGLLKAGPALALLGAAAALAK-NH2 [CE-2] | yes |
